Laboratory results as given in ChEMBL document CHEMBL1201862, “PubChem BioAssay data set” (2004).
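Protocol summary: plate cells (96-well), add compound at 5 concentrations, incubate 48 h, interpolate endpoints linearly. GI50 = concentration required for 50% inhibition of growth.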 The source made the active and inactive calls. Rule as the data show it: active = GI50 up to about 1.1 µM and inactive = higher.

Legend:
Test in all cases: NCI anticancer screen, dose series, 48 h
OVCAR-8 = tested on: OVCAR-8
SF-268 = tested on: SF-268
SNB-19 = tested on: SNB-19
SK-MEL-2 = tested on: SK-MEL-2
NCI-H522 = tested on: NCI-H522
UACC-257 = tested on: UACC-257
M14 = tested on: M14
NCI-H23 = tested on: NCI-H23
Malme-3M = tested on: Malme-3M
COLO 205 = tested on: COLO 205
HOP-92 = tested on: HOP-92
HT-29 = tested on: HT-29
RPMI-8226 = tested on: RPMI-8226
UO-31 = tested on: UO-31
SF-539 = tested on: SF-539
LOX IMVI = tested on: LOX IMVI
HCC 2998 = tested on: HCC 2998
SK-MEL-28 = tested on: SK-MEL-28
MDA-MB-231 = tested on: MDA-MB-231

Measured: GI50

C[n+]1cn(CC(=O)c2ccccc2)c(C(N)=O)c1N
inactive: OVCAR-8 > 100 µM | SF-268 > 100 µM | SNB-19 > 100 µM | SK-MEL-2 > 100 µM | NCI-H522 77.6 µM | UACC-257 > 100 µM | M14 > 100 µM | NCI-H23 > 100 µM | Malme-3M > 100 µM | COLO 205 41.4 µM | HOP-92 > 100 µM | HT-29 > 100 µM | RPMI-8226 45.1 µM | UO-31 > 100 µM | SF-539 > 100 µM | LOX IMVI > 100 µM | HCC 2998 > 100 µM | SK-MEL-28 > 100 µM

CCOC(=O)NC(=S)NN(C)C1=NCC(C)(C)S1
inactive: SNB-19 > 100 µM | SK-MEL-2 > 100 µM | NCI-H522 > 100 µM | MDA-MB-231 > 100 µM | UACC-257 > 100 µM | COLO 205 > 100 µM | HOP-92 > 100 µM | RPMI-8226 > 100 µM | UO-31 > 100 µM | SF-539 > 100 µM | LOX IMVI > 100 µM | SK-MEL-28 > 100 µM

CN(C)C=C1C(Cl)=C(C=O)CC(C=O)=C1Cl
inactive: OVCAR-8 3.13 µM | SF-268 8.17 µM | SNB-19 14.3 µM | SK-MEL-2 17.6 µM | NCI-H522 1.86 µM | UACC-257 14.9 µM | M14 12.2 µM | NCI-H23 14.6 µM | Malme-3M 10.4 µM | COLO 205 15.6 µM | HOP-92 4.2 µM | HT-29 14 µM | RPMI-8226 2.39 µM | UO-31 17.7 µM | SF-539 14.8 µM | LOX IMVI 2.19 µM | HCC 2998 15.2 µM | SK-MEL-28 6.59 µM

O=C(O)Cc1ccc2c(c1O)C(=O)c1c(ccc(CC(=O)O)c1O)C2=O
inactive: OVCAR-8 > 100 µM | SF-268 > 100 µM | SNB-19 > 100 µM | SK-MEL-2 > 100 µM | NCI-H522 > 100 µM | UACC-257 > 100 µM | M14 > 100 µM | NCI-H23 > 100 µM | Malme-3M > 100 µM | COLO 205 > 100 µM | HOP-92 > 100 µM | HT-29 > 100 µM | RPMI-8226 > 100 µM | SF-539 > 100 µM | LOX IMVI > 100 µM | HCC 2998 > 100 µM | SK-MEL-28 > 100 µM

COC(=O)/C(=N/O)C(C(=O)C=C(C)C)C(=O)C(=O)Nc1nc2ccc([N+](=O)[O-])cc2s1 (centres undefined)
inactive: OVCAR-8 39.5 µM | SF-268 28.3 µM | SNB-19 67.9 µM | SK-MEL-2 25.8 µM | NCI-H522 32.1 µM | UACC-257 44.6 µM | M14 54.7 µM | NCI-H23 25.2 µM | Malme-3M 27.5 µM | COLO 205 41.6 µM | HOP-92 13.1 µM | HT-29 59.7 µM | RPMI-8226 27.9 µM | UO-31 26.8 µM | SF-539 23.2 µM | LOX IMVI 22.9 µM | HCC 2998 35.6 µM | SK-MEL-28 58.7 µM

Cc1cc(NS(=O)(=O)c2ccc(Nc3c4ccccc4nc4c(C(=O)Nc5ccc(S(=O)(=O)N=C(N)N)cc5)cccc34)cc2)no1
inactive: OVCAR-8 > 100 µM | SF-268 > 100 µM | SNB-19 > 100 µM | SK-MEL-2 > 100 µM | NCI-H522 > 100 µM | UACC-257 > 100 µM | M14 > 100 µM | NCI-H23 > 100 µM | Malme-3M > 100 µM | COLO 205 > 100 µM | HOP-92 > 100 µM | HT-29 > 100 µM | RPMI-8226 > 100 µM | UO-31 > 100 µM | SF-539 > 100 µM | LOX IMVI > 100 µM | HCC 2998 > 100 µM | SK-MEL-28 > 100 µM

Cc1c(OCCCOc2ccc3c(=O)cc(-c4ccccc4)oc3c2C)ccc2c(=O)cc(-c3ccccc3)oc12
inactive: OVCAR-8 > 100 µM | SF-268 > 100 µM | SNB-19 > 100 µM | SK-MEL-2 > 100 µM | NCI-H522 > 100 µM | UACC-257 > 100 µM | M14 > 100 µM | NCI-H23 > 100 µM | Malme-3M > 100 µM | HOP-92 > 100 µM | HT-29 > 100 µM | RPMI-8226 > 100 µM | UO-31 > 100 µM | SF-539 > 100 µM | LOX IMVI > 100 µM | SK-MEL-28 > 100 µM

CC1=Nc2c(O)nc(S)nc2NC(c2ccc(Cl)c(Cl)c2)C1 (centres undefined)
inactive: OVCAR-8 18.7 µM | SF-268 32.2 µM | SNB-19 > 45 µM | SK-MEL-2 > 100 µM | NCI-H522 74.3 µM | UACC-257 21 µM | M14 16.9 µM | NCI-H23 19.4 µM | Malme-3M > 89.7 µM | COLO 205 18 µM | HOP-92 > 93.1 µM | HT-29 24.3 µM | RPMI-8226 > 100 µM | UO-31 29.9 µM | SF-539 21.1 µM | LOX IMVI 20 µM | HCC 2998 17.8 µM | SK-MEL-28 18.3 µM

O=C(C#Cc1ccccc1)N1c2ccccc2CC1c1c[nH]c2ccccc12 (centres undefined)
inactive: OVCAR-8 11.6 µM | SNB-19 30.3 µM | SK-MEL-2 12.5 µM | NCI-H522 11 µM | UACC-257 19.1 µM | M14 15 µM | NCI-H23 12.6 µM | Malme-3M 14.9 µM | COLO 205 14.5 µM | HOP-92 15.3 µM | HT-29 18 µM | RPMI-8226 13 µM | UO-31 23.1 µM | SF-539 13 µM | LOX IMVI 6.73 µM | HCC 2998 17.2 µM | SK-MEL-28 14.9 µM

COc1ccc2c3c([nH]c(=O)c2c1C(=O)O)-c1ccccc1CC3
inactive: SF-268 > 100 µM | SNB-19 > 100 µM | SK-MEL-2 > 100 µM | NCI-H522 > 100 µM | M14 > 100 µM | NCI-H23 > 100 µM | Malme-3M > 100 µM | COLO 205 > 100 µM | HOP-92 > 100 µM | HT-29 > 100 µM | RPMI-8226 > 100 µM | UO-31 > 100 µM | SF-539 > 100 µM | LOX IMVI > 100 µM | HCC 2998 > 100 µM | SK-MEL-28 > 100 µM

OCC1CC2CC1C1(C2)OCCO1 (centres undefined)
inactive: OVCAR-8 > 100 µM | SF-268 > 100 µM | SNB-19 > 100 µM | SK-MEL-2 > 100 µM | NCI-H522 > 100 µM | UACC-257 > 100 µM | M14 > 100 µM | NCI-H23 > 100 µM | Malme-3M > 100 µM | COLO 205 > 100 µM | HOP-92 > 100 µM | HT-29 > 100 µM | RPMI-8226 > 100 µM | UO-31 > 100 µM | SF-539 > 100 µM | LOX IMVI > 100 µM | SK-MEL-28 > 100 µM

OCC(O)C(O)c1nn(-c2ccccc2)c2nc3cc(Cl)c(Cl)cc3nc12 (centres undefined)
inactive: OVCAR-8 20.4 µM | SF-268 21.4 µM | SNB-19 48.2 µM | SK-MEL-2 22.3 µM | NCI-H522 26.1 µM | UACC-257 36.7 µM | M14 27.9 µM | NCI-H23 41.5 µM | Malme-3M 17.2 µM | COLO 205 24.7 µM | HOP-92 35.7 µM | HT-29 21.9 µM | RPMI-8226 8.93 µM | UO-31 5.98 µM | SF-539 24 µM | LOX IMVI 19.5 µM | HCC 2998 31.9 µM | SK-MEL-28 41.3 µM

CC1=CC2C(C=C1)S(=O)(=O)N1CC21c1ccccc1 (centres undefined)
inactive: OVCAR-8 > 100 µM | SF-268 > 100 µM | SNB-19 > 100 µM | SK-MEL-2 > 100 µM | NCI-H522 > 100 µM | UACC-257 > 100 µM | M14 > 100 µM | NCI-H23 > 100 µM | Malme-3M > 100 µM | COLO 205 > 100 µM | HOP-92 15.1 µM | HT-29 > 100 µM | RPMI-8226 > 100 µM | UO-31 55.1 µM | SF-539 > 100 µM | LOX IMVI 33.5 µM | HCC 2998 > 100 µM | SK-MEL-28 > 100 µM

NC(=O)C(=Cc1ccc(C(O)P(=O)(O)O)cc1)C(N)=O (centres undefined)
inactive: OVCAR-8 > 100 µM | SNB-19 > 100 µM | SK-MEL-2 > 100 µM | NCI-H522 > 100 µM | UACC-257 > 100 µM | M14 > 100 µM | NCI-H23 > 100 µM | Malme-3M > 100 µM | COLO 205 > 100 µM | HOP-92 > 100 µM | HT-29 > 100 µM | RPMI-8226 > 100 µM | UO-31 > 100 µM | SF-539 > 100 µM | LOX IMVI > 100 µM | HCC 2998 > 100 µM | SK-MEL-28 > 100 µM

CCC1(CN(C)C)CC/C(=C\c2ccc(OC)cc2)C1=O (centres undefined)
inactive: OVCAR-8 > 100 µM | SF-268 > 100 µM | SNB-19 > 100 µM | SK-MEL-2 > 100 µM | NCI-H522 31.5 µM | UACC-257 89.3 µM | M14 > 100 µM | NCI-H23 > 100 µM | Malme-3M > 100 µM | COLO 205 80.7 µM | HOP-92 > 100 µM | HT-29 44.9 µM | RPMI-8226 17.4 µM | UO-31 > 100 µM | SF-539 > 100 µM | LOX IMVI > 100 µM | HCC 2998 > 100 µM | SK-MEL-28 > 100 µM

C1CSC(=[N+]2CC[N+](=C3SCCS3)CC2)S1
inactive: OVCAR-8 > 100 µM | SF-268 > 100 µM | SNB-19 > 100 µM | SK-MEL-2 > 100 µM | NCI-H522 > 100 µM | UACC-257 > 100 µM | M14 > 100 µM | NCI-H23 > 100 µM | Malme-3M > 100 µM | COLO 205 > 100 µM | HOP-92 45.4 µM | HT-29 > 100 µM | RPMI-8226 > 100 µM | UO-31 > 100 µM | SF-539 > 100 µM | LOX IMVI 39.2 µM | HCC 2998 > 100 µM | SK-MEL-28 > 100 µM
